Publication PMC12085399, “Quantitative in vitro-to-in vivo extrapolation of human adrenergic and trace amine-associated receptor 1 potencies of pre-workout supplement ingredients using physiologically based kinetic modelling-based reverse dosimetry” (Archives of Toxicology, 2025)

Assays:
[1] = in vitro; settings: human; for Papp B→A at 60 min, 10 µM / efflux ratio at 60 min, 10 µM: Caco-2, pH 7.4; for recovery at 60 min, 10 µM: after 60 min, mean ± SD
Method: (§1) Caco-2 cells (ATCC, Manassas, VA, USA; passage 30–44) were cultured in DMEM (Gibco, New York, USA) containing 4.5 g/L d-glucose, 4 mM L-glutamine and supplemented with 10% FBS (Gibco, Grand Island, NY, USA), 1% minimal essential medium non-essential amino acids (Gibco, Paisley, UK), 100 units/mL penicillin and 100 µg/mL streptomycin (Gibco, Grand Island, NY, USA). Cells were seeded at a density of 4.0 × 10^4 cells/cm^2 on polyester transwell insert membranes (12 mm insert, 0.4 µm pore size; Corning incorporated, Kennebunk, ME, USA). Cells were maintained in a humidified incubator with 5% CO2 at 37 °C for 21 or 22 days in 0.5 mL and 1.5 mL medium in the apical and basolateral compartments, respectively. The medium was refreshed every two or three days and always one day before the permeability assay.
(§2) On the day of the experiment, cells were washed twice with HBSS without phenol red (pH 7.4; Sigma-Aldrich, Steinheim, Germany) supplemented with 0.35 g/L sodium bicarbonate and 25 mM HEPES and they were equilibrated in this supplemented HBSS for 15 min in a humidified incubator with 5% CO2 at 37 °C. […] These stocks were diluted to a final concentration of 10 µM in pre-warmed supplemented HBSS (final DMSO level = 0.1%). After 15 min, the transepithelial electrical resistance (TEER) was measured with an Epithelial Voltohmmeter (World Precision Instruments, Sarasota, USA). Compound transport was studied in two directions: from the apical to the basolateral compartment (A-B) and from the basolateral to the apical compartment (B-A). For A-B experiments, 450 µL of the compound (10 µM) was added to the apical side and 1200 µL supplemented HBSS was added to the basolateral side. A sample of 50 µL was removed immediately from the apical compartment at time point zero. After 15 and 30 min, samples were taken from the basolateral compartment. Cells were kept in the incubator during the experiment. After 60 min, medium from both compartments was sampled, cells were washed twice with supplemented HBSS and were maintained in the incubator. After 15 min, the TEER was measured again to check for epithelial barrier damage due to compound exposure. After this, cells were lysed in RIPA buffer (Thermo Scientific, Rockford, IL, USA). For B-A experiments, 400 µL of supplemented HBSS was added to the apical side and 1250 µL of the compound (10 µM) was added to the basolateral side. A sample of 50 µL was removed immediately from the basolateral compartment at time point zero. After 15 and 30 min, samples were taken from the apical compartment. After 60 min, samples were taken similarly as in A-B experiments. The sampled medium and cell lysates were stored at −20 °C till the day of the liquid chromatography–mass spectrometry (LC–MS/MS) analysis. All experiments were run in duplicate. The compounds were quantified with LC–MS/MS as described in Sect. "LC–MS/MS analysis".
(§3) Before chemical analysis, cell lysates were two times diluted in ice-cold methanol and centrifuged at 15,000 rpm at 4 °C. The supernatant was then injected into the LC–MS/MS system. Sampled buffer from donor compartments was diluted 40 times in buffer and samples from the receiver compartment were analysed undiluted. Standards were prepared in the same assay buffer to quantify the amount of compound in medium samples. For quantification of compounds in cell lysates, standards were prepared in a mixture of 50% RIPA buffer and 50% methanol.
(§4) All data are presented as mean ± SD.
(§5) For the < Tsi > a value of 3.32 h was used (Grandoni et al. [2019]).

[2] = tested on: Caco-2 cells; assay: in vitro; settings: for metabolic breakdown by Caco-2 cells: Caco-2 transport studies, 10 µM; for fa (fraction absorbed) / ka (absorption rate constant): scaled from corrected Caco-2 Papp A-B, human
Method: as §1, §2, §3, §4, §5

[3] = human; ref Faraj et al. [1979]; cited from earlier work
[4] = Generic human PBK model with oral dosing, simulated venous plasma concentration; settings: oral dose of 5.7 mg/kg bw, observed data of Rafehi et al. [2019]
Excerpt: The PBK model codes used in this study are presented in the Supplementary data. For the prediction of internal concentrations of the PEA analogues a generic PBK model for humans with oral dosing was used. The PBK model code was adopted from (Jones and Rowland-Yeo [2013]). In general, the body compartments described in the model are: adipose, bone, brain, gut, heart, kidney, liver, lung, muscle, skin, spleen, testes, venous, arterial, plasma and a rest compartment. The concentrations in these compartments were modelled as blood-flow limited, in which it is assumed that the total concentration in the tissue is in equilibrium with the concentration in the systemic circulation at a steady state. The concentration in the circulation is compound-specific and is based on the plasma partition coefficients. The blood flow rate, the tissue volume and the plasma partition coefficients determine the rate of reaching the steady-state (Jones and Rowland-Yeo [2013]). The model was converted to RStudio (version 2023.12.1 Build 402, “Ocean Storm Release”) solving the differential equations with the R rxode2 package (with tidyverse packages). Cliver free was defined as Cliver/Kp liver * Fup instead of Cliver* Fup. […]

[5] = human, t = 0.70 h, escalating intravenous infusion 0.5, 1, 2, 4 µg/kg bw/min, 3 min each; ref Feng et al. [2012]; cited from earlier work
[6] = tested on: ADRβ1; design: method as in Pinckaers et al. [2024]; settings: in vitro ADRβ1 activation assays, Fig. 6E; ref Pinckaers et al. [2024]; cited from earlier work
[7] = Caco-2, pH 7.4, Papp A-B corrected, corrected for the difference between Papp A-B of metoprolol in this study and in literature
[8] = Caco-2, pH 7.4, Papp A-B, Caco-2, apical to basolateral, 10 µM, HBSS pH 7.4, mean ± SD, duplicate
[9] = Caco-2, pH 7.4, Recovery (A-B), Caco-2, A-B experiments
[10] = Caco-2, pH 7.4, Recovery (B-A), Caco-2, B-A experiments

Compound	Papp B→A at 60 min, 10 µM [1] [×10⁻⁶ cm/s]	Papp A→B at 60 min, 10 µM [1, 7] [×10⁻⁶ cm/s]	Papp A→B at 60 min, 10 µM [1, 8] [×10⁻⁶ cm/s]	recovery at 60 min, 10 µM [1, 9] [%]	recovery at 60 min, 10 µM [1, 10] [%]	metabolic breakdown by Caco-2 cells [2]	fa (fraction absorbed) [2]	ka (absorption rate constant) [2] [h⁻¹]	metabolic clearance observed in humans [3] [L/h]	over-prediction of the Cmax plasma compared to the observed average [4] [fold]	observed average plasma concentration [5] [ng/mL]	efflux ratio at 60 min, 10 µM [1]	in vitro potency, times more potent than isopropyloctopamine [6] [times]
CNCC(O)c1ccc(O)cc1 (stereo not drawn) [p-Synephrine, Synephrine]	0.22 ± 0.0453	3.47	0.951 ± 0.497	109 ± 1.48	100 ± 4.89	not observed	0.997	0.951					
NCCc1ccc(O)cc1 [Tyramine, tyramine]	1.13 ± 0.67	8.7	2.38 ± 1.19	114 ± 11.2	84 ± 6.25	not observed	1.00	1.50	792	3.78			
Oc1ccc(CC2NCCc3cc(O)c(O)cc32)cc1 (stereo not drawn) [Higenamine, higenamine]	0.0612 ± 0.00186	0.223	0.061 ± 0.0351	104 ± 0.35	105 ± 1.06		0.860	0.246			0.5	1	3.5
CC(C)NCC(O)c1ccc(O)cc1 (stereo not drawn) [Isopropyloctopamine, isopropyloctopamine]	0.652 ± 0.0444	2.56	0.703 ± 0.041	79.8 ± 2.19	76.5 ± 1.27		0.994	0.818					
CNCC(O)c1ccccc1 (stereo not drawn) [Halostachine, halostachine]	10.3 ± 0.649	47.8	13.1 ± 0.144	84 ± 3.18	93.9 ± 0.0289		1.00	3.46				0.786	
CC(CN)c1ccccc1 (stereo not drawn) [β-Methylphenethylamine, β-methylphenethylamine]	12.1 ± 2.02	57.6	15.8 ± 1.47	80.9 ± 3.27	89.3 ± 4.46		1.00	3.79				0.766	
CNC(C)C(O)c1ccc(O)cc1 (stereo not drawn) [Methylsynephrine]	0.39 ± 0.202	1.3	0.353 ± 0.215	114 ± 8.39	102 ± 11.7		0.971	0.563				1.1	
CN(C)CCc1ccc(O)cc1 [Hordenine, hordenine]	11.2 ± 0.22	47.3	13 ± 0.192	96.7 ± 1.27	107 ± 0.0262		1.00	3.46				0.862	
CN(C)CCc1ccccc1 [Dimethylphenethylamine, N,N-dimethylphenethylamine]	13.1 ± 0.51	53.5	14.7 ± 0.244	76.7 ± 0.06	93.3 ± 4.81		1.00	3.66				0.891	
NCCc1ccccc1 [Phenethylamine, phenethylamine]	1.95 ± 1.04	10.5	2.88 ± 0.22	15.7 ± 1.51	103 ± 3.36	metabolized by Caco-2 cells	1.00	1.64				0.677	
